Experimental data taken from patent US20160296628A1, “NANOPARTICLE DELIVERY SYSTEMS FOR CYTOLYTIC PEPTIDE PRODRUGS” (Washington University, priority 2015, published 2016).

How the values were obtained:
B16F10 melanoma cells = experiment: XTT cytotoxicity assay, B16F10 melanoma cells; format: cell-based; details: B16F10, MMP-9 added to culture media
2F2B endothelial cells = experiment: XTT cytotoxicity assay, 2F2B endothelial cells; format: cell-based; details: 3 hours at 37° C., FIGS. 1A-1C
Procedure: (§1) The conjugate was compared to melittin and to melittin coupled only to linker in order to determine toxicity to endothelial cells and macrophages, as well as hemolysis. For assessment of cytotoxicity, 2F2B endothelial cells (CRL-2168; American Type Culture Collection, Manassas, Va.) or RAW 264.7 macrophages (TIB-71; American Type Culture Collection, Manassas, Va.) were plated in a 96-well plate at a concentration of 15,000 cells/well and allowed to attach overnight. The peptide of interest was then added and incubated with the cells for 3 hours at 37° C. Following this incubation, the agent of interest was removed, cells were washed with phosphate-buffered saline, and cell viability was determined by XTT assay (Biotium, Hayward, Calif.). This assay measures the ability of cellular oxidoreductases to reduce the XTT reagent, resulting in a colored product. Briefly, cells were incubated with the activated XTT reagent for 3 hours at 37° C. with shaking at 200 rpm. The absorbance of each well at 450 nm was then measured using a Bio-Rad Model 550 plate reader (Bio-Rad Laboratories, Hercules, Calif.) with reference wavelength 630 nm.
(§2) To assess the impact of proteolytic cleavage on conjugate cytotoxicity and hemolytic activity, we repeated these experiments following cleavage of the conjugate by matrix metalloproteinase-9 (MMP-9). […]

RAW 264.7 macrophages = experiment: XTT cytotoxicity assay, RAW 264.7 macrophages; format: cell-based; details: 3 hours at 37° C., FIGS. 1A-1C
Procedure: as §1, §2

red blood cells = experiment: Hemolysis of red blood cells; format: cell-based, New Zealand white rabbits
Procedure: For hemolysis measurements, citrated whole blood was collected from New Zealand white rabbits and separated by centrifugation at 2000 rpm for 10 minutes. Red blood cells were washed five times with Dulbecco's phosphate buffered saline and stored at 4° C. until use. In each assay, the peptide of interest was added to 1×10^7 red blood cells in PBS and incubated at 37° C. for one hour. Afterwards, intact red blood cells were pelleted by centrifugation at 2000 rpm for 5 minutes and absorbance of the supernatant at 450 nm was measured using a Bio-Rad Model 550 plate reader (Bio-Rad Laboratories, Hercules, Calif.) with reference wavelength 630 nm To determine percent lysis, absorbance readings were normalized to lysis with 0.1% Triton™ X-100.
To assess the impact of proteolytic cleavage on conjugate cytotoxicity and hemolytic activity, we repeated these experiments following cleavage of the conjugate by matrix metalloproteinase-9 (MMP-9). Recombinant MMP-9 (R&D Systems, Minneapolis, Minn.) was activated by incubation with 1 mM 4-aminophenylmercuric acetate (APMA; Sigma-Aldrich, St. Louis, Mo.) at 37° C. for 2 hours. Free APMA was removed by dialysis against TCNBZ buffer (150 mM NaCl, 50 mM Tris, 10 mM CaCl2, 10 μM ZnCl2, 0.05% (w/v) Brij-35, pH 7.75) for 2 hours using a Slide-A-Lyzer MINI Dialysis Device, 2K MWCO (Thermo Scientific, Waltham, Mass.) with a dialysate change at 1 hour. […]

[1] = Peptide loading onto perfluorocarbon nanoparticles; format: physicochemical; details: 1 mM peptide in phosphate-buffered saline, 4° C., 1 hour
Procedure: Conjugate-loaded nanoparticles were formulated by mixing known amounts of conjugate to non-targeted perfluorocarbon nanoparticles prepared in Example 1A and compared to melittin loading. Both melittin and the conjugate were produced by solid-phase peptide synthesis (melittin: GenScript, Piscataway, N.J.; conjugate: American Peptide Company, Sunnyvale, Calif.). Perfluorocarbon nanoparticles were incubated with 1 mM melittin or conjugate in phosphate-buffered saline at 4° C. for 1 hour. Nanoparticles were then isolated by centrifugation at 5,000 rpm for 15 minutes. The supernatant was removed and nanoparticles were washed three times with phosphate-buffered saline to remove free peptide.

| Structure (SMILES) | cytotoxicity to melanoma cells (B16F10 melanoma cells) | change of cytolytic activity / cytotoxicity relative to melittin (2F2B endothelial cells) | change of cytolytic activity / cytotoxicity relative to melittin (RAW 264.7 macrophages) | hemolytic activity after cleavage by MMP-9 (red blood cells; conjugate 200 μM cleaved with 20 nM MMP-9, 3 hours at 37° C.) | change of cytolytic / hemolytic activity relative to melittin (red blood cells; rabbit red blood cells in PBS, 37° C., one hour, FIGS. 1A-1C) | loading, peptides per nanoparticle [1] |
| --- | --- | --- | --- | --- | --- | --- |
| CC[C@H](C)[C@H](NC(=O)CNC(=O)[C@H](CCC(N)=O)NC(=O)CNC(=O)[C@H](C)NC(=O)[C@@H](NC(=O)CNC(=O)[C@H](CCC(N)=O)NC(=O)[C@@H]1CCCN1C(=O)CNC(=O)[C@H](C)NC(=O)[C@H](CCC(=O)O)NC(=O)[C@@H]1CCCN1C(=O)[C@H](CC(=O)O)NC(=O)[C@H](C)NC(=O)[C@H](CCC(=O)O)NC(=O)[C@H](C)NC(=O)[C@H](CC(=O)O)NC(=O)[C@H](C)NC(=O)[C@H](CCC(=O)O)NC(=O)[C@H](C)NC(=O)[C@H](CCC(=O)O)NC(=O)[C@@H]1CCCN1C(=O)[C@H](CCC(=O)O)NC(=O)[C@@H]1CCCN1C(=O)[C@H](C)NC(=O)[C@@H]1CCCN1C(=O)[C@H](CCC(=O)O)NC(=O)[C@@H]1CCCN1)[C@@H](C)CC)C(=O)NCC(=O)N[C@@H](C)C(=O)N[C@H](C(=O)N[C@@H](CC(C)C)C(=O)N[C@@H](CCCCN)C(=O)N[C@H](C(=O)N[C@@H](CC(C)C)C(=O)N[C@H](C(=O)N[C@H](C(=O)NCC(=O)N[C@@H](CC(C)C)C(=O)N1CCC[C@H]1C(=O)N[C@@H](C)C(=O)N[C@@H](CC(C)C)C(=O)N[C@H](C(=O)N[C@@H](CO)C(=O)N[C@@H](Cc1c[nH]c2ccccc12)C(=O)N[C@H](C(=O)N[C@@H](CCCCN)C(=O)N[C@@H](CCCNC(=N)N)C(=O)N[C@@H](CCCCN)C(=O)N[C@@H](CCCNC(=N)N)C(=O)N[C@@H](CCC(N)=O)C(=O)N[C@@H](CCC(N)=O)C(N)=O)[C@@H](C)CC)[C@@H](C)CC)[C@@H](C)O)[C@@H](C)O)C(C)C)C(C)C [Pro-P2] | substantially cytotoxic | reduced melittin cytotoxicity and hemolytic activity by at least two orders of magnitude | reduced melittin cytotoxicity and hemolytic activity by at least two orders of magnitude | restored | reduced melittin cytotoxicity and hemolytic activity by at least two orders of magnitude |  |
| CC[C@H](C)[C@H](NC(=O)CN)C(=O)NCC(=O)N[C@@H](C)C(=O)N[C@H](C(=O)N[C@@H](CC(C)C)C(=O)N[C@@H](CCCCN)C(=O)N[C@H](C(=O)N[C@@H](CC(C)C)C(=O)N[C@H](C(=O)N[C@H](C(=O)NCC(=O)N[C@@H](CC(C)C)C(=O)N1CCC[C@H]1C(=O)N[C@@H](C)C(=O)N[C@@H](CC(C)C)C(=O)N[C@H](C(=O)N[C@@H](CO)C(=O)N[C@@H](Cc1c[nH]c2ccccc12)C(=O)N[C@H](C(=O)N[C@@H](CCCCN)C(=O)N[C@@H](CCCNC(=N)N)C(=O)N[C@@H](CCCCN)C(=O)N[C@@H](CCCNC(=N)N)C(=O)N[C@@H](CCC(N)=O)C(=O)N[C@@H](CCC(N)=O)C(N)=O)[C@@H](C)CC)[C@@H](C)CC)[C@@H](C)O)[C@@H](C)O)C(C)C)C(C)C [melittin] |  |  |  |  |  | approximately 16,000 peptides per nanoparticle |
